# From patent US8710065B2, “Tricyclic inhibitors of kinases” (AbbVie Inc., priority 2011, dated 2014)
# Target: T1, GST-tagged-Wee1 kinase (Homo sapiens, UniProt P30291)
# T1 construct: purchased Carnabio (Carna Biosciences) 05-177
# Assay: Wee1 time-resolved fluorescence equilibrium binding assay (displacement of Oregon Green-labeled ATP-competitive kinase probe)
# Conditions: read-out: Wee-1 inhibition (Ki)
# Method in brief: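 Ki values derive from competitive displacement, under equilibrium, of a fast-reversible ATP-site Oregon Green kinase probe from GST-tagged Wee1, detected by time-resolved fluorescence.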
# T1 sequence (P30291 whole entry): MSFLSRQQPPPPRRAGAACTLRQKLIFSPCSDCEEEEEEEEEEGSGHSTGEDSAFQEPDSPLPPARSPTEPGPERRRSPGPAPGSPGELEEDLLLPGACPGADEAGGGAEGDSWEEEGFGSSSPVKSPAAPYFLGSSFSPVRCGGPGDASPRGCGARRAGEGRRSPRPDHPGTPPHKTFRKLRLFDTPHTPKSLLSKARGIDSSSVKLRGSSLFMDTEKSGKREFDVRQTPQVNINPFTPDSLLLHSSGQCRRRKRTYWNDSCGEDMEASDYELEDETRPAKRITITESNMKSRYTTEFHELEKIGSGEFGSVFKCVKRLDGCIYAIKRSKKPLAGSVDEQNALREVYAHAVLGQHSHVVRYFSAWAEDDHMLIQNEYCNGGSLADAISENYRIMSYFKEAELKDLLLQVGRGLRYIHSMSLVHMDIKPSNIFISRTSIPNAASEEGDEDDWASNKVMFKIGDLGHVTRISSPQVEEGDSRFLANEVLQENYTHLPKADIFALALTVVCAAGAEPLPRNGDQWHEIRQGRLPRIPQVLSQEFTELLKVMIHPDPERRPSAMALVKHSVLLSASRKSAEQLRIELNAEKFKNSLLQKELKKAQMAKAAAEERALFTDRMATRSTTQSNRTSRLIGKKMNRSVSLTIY
row,Structure (SMILES),Ki [nM]
1,"Cc1cc(Nc2ncc3c(=O)n(-c4c(Cl)cc(F)cc4Cl)c4nccn4c3n2)ccc1N1CCCN(C)CC1 [Example 124, 6-(2,6-dichloro-4-fluorophenyl)-2-{[3-methyl-4-(4-methyl-1,4-diazepan-1-yl)phenyl]amino}imidazo[1,2-a]pyrimido[5,4-e]pyrimidin-5(6H)-one]",< 10
2,"CN1Cc2cc(Nc3ncc4c(=O)n(-c5c(Cl)cc(F)cc5Cl)c5nccn5c4n3)ccc2C2(CC2)C1 [Example 125, 6-(2,6-dichloro-4-fluorophenyl)-2-[(2′-methyl-2′,3′-dihydro-1′H-spiro[cyclopropane-1,4′-isoquinolin]-7′-yl)amino]imidazo[1,2-a]pyrimido[5,4-e]pyrimidin-5(6H)-one]",< 10
3,"CN(C)C1Cc2ccc(Nc3ncc4c(=O)n(-c5c(Cl)cc(F)cc5Cl)c5nccn5c4n3)cc2C1 (stereo not drawn) [Example 126, 6-(2,6-dichloro-4-fluorophenyl)-2-{[2-(dimethylamino)-2,3-dihydro-1H-inden-5-yl]amino}imidazo[1,2-a]pyrimido[5,4-e]pyrimidin-5(6H)-one]",< 10
4,"CN1CCN(Cc2ccc(Nc3ncc4c(=O)n(-c5c(Cl)cccc5Cl)c5nccn5c4n3)cc2)CC1 [Example 127, 6-(2,6-dichlorophenyl)-2-({4-[(4-methylpiperazin-1-yl)methyl]phenyl}amino)imidazo[1,2-a]pyrimido[5,4-e]pyrimidin-5(6H)-one]",< 10
5,"C[C@@H]1CN(c2ccc(Nc3ncc4c(=O)n(-c5c(Cl)cccc5Cl)c5nccn5c4n3)cc2F)C[C@H](C)N1 [Example 128, 6-(2,6-dichlorophenyl)-2-({4-[(3R,5S)-3,5-dimethylpiperazin-1-yl]-3-fluorophenyl}amino)imidazo[1,2-a]pyrimido[5,4-e]pyrimidin-5(6H)-one]",< 10
6,"O=c1c2cnc(Nc3cc(F)c(N4CCNCC4)c(F)c3)nc2n2ccnc2n1-c1c(Cl)cccc1Cl [Example 129, 6-(2,6-dichlorophenyl)-2-{[3,5-difluoro-4-(piperazin-1-yl)phenyl]amino}imidazo[1,2-a]pyrimido[5,4-e]pyrimidin-5(6H)-one]",< 10
7,"CC1(C)CN(CC2CC2)Cc2cc(Nc3ncc4c(=O)n(-c5ccccc5Cl)c5nccn5c4n3)ccc21 [Example 130, 6-(2-chlorophenyl)-2-{[2-(cyclopropylmethyl)-4,4-dimethyl-1,2,3,4-tetrahydroisoquinolin-7-yl]amino}imidazo[1,2-a]pyrimido[5,4-e]pyrimidin-5(6H)-one]",< 10
8,"CC1(C)CN(Cc2cccnc2)Cc2cc(Nc3ncc4c(=O)n(-c5ccccc5Cl)c5nccn5c4n3)ccc21 [Example 131, 6-(2-chlorophenyl)-2-{[4,4-dimethyl-2-(pyridin-3-ylmethyl)-1,2,3,4-tetrahydroisoquinolin-7-yl]amino}imidazo[1,2-a]pyrimido[5,4-e]pyrimidin-5(6H)-one]",< 10
9,"CC1(C)CN(Cc2ccsc2)Cc2cc(Nc3ncc4c(=O)n(-c5ccccc5Cl)c5nccn5c4n3)ccc21 [Example 132, 6-(2-chlorophenyl)-2-{[4,4-dimethyl-2-(thiophen-3-ylmethyl)-1,2,3,4-tetrahydroisoquinolin-7-yl]amino}imidazo[1,2-a]pyrimido[5,4-e]pyrimidin-5(6H)-one]",< 10
10,"CN1CCc2cc(Nc3ncc4c(=O)n(-c5ccccc5Cl)c5nccn5c4n3)ccc2C1(C)C [Example 133, 6-(2-chlorophenyl)-2-[(1,1,2-trimethyl-1,2,3,4-tetrahydroisoquinolin-6-yl)amino]imidazo[1,2-a]pyrimido[5,4-e]pyrimidin-5(6H)-one]",< 10

# Further lines, results first:
row,Ki [nM],Structure (SMILES)
1,< 10,"O=c1c2cnc(Nc3ccc(C4CCCN4)cc3)nc2n2ccnc2n1-c1c(Cl)cccc1Cl (stereo not drawn) [Example 134, 6-(2,6-dichlorophenyl)-2-{[4-(pyrrolidin-2-yl)phenyl]amino}imidazo[1,2-a]pyrimido[5,4-e]pyrimidin-5(6H)-one]"
2,< 10,"O=c1c2cnc(Nc3ccc(C4CCCCN4)cc3)nc2n2ccnc2n1-c1c(Cl)cccc1Cl (stereo not drawn) [Example 135, 6-(2,6-dichlorophenyl)-2-{[4-(piperidin-2-yl)phenyl]amino}imidazo[1,2-a]pyrimido[5,4-e]pyrimidin-5(6H)-one]"
3,< 10,"CN1CCN(c2ccc(Nc3ncc4c(=O)n(-c5c(Cl)cccc5Cl)c5nccn5c4n3)cc2Cl)CC1 [Example 136, 2-{[3-chloro-4-(4-methylpiperazin-1-yl)phenyl]amino}-6-(2,6-dichlorophenyl)imidazo[1,2-a]pyrimido[5,4-e]pyrimidin-5(6H)-one]"
4,< 10,"COc1cc(Nc2ncc3c(=O)n(-c4c(Cl)cccc4Cl)c4nccn4c3n2)ccc1N1CCN(C(C)C)CC1 [Example 137, 6-(2,6-dichlorophenyl)-2-({3-methoxy-4-[4-(propan-2-yl)piperazin-1-yl]phenyl}amino)imidazo[1,2-a]pyrimido[5,4-e]pyrimidin-5(6H)-one]"
5,< 10,"O=c1c2cnc(Nc3ccc(N4CCC(O)CC4)cc3)nc2n2ccnc2n1-c1ccccc1Cl [Example 138, 6-(2-chlorophenyl)-2-{[4-(4-hydroxypiperidin-1-yl)phenyl]amino}imidazo[1,2-a]pyrimido[5,4-e]pyrimidin-5(6H)-one]"
6,< 10,"CN(C)C1Cc2ccc(Nc3ncc4c(=O)n(-c5c(F)cccc5Cl)c5nccn5c4n3)cc2C1 (stereo not drawn) [Example 139, 6-(2-chloro-6-fluorophenyl)-2-{[2-(dimethylamino)-2,3-dihydro-1H-inden-5-yl]amino}imidazo[1,2-a]pyrimido[5,4-e]pyrimidin-5(6H)-one]"
7,< 10,"CN1Cc2cc(Nc3ncc4c(=O)n(-c5c(F)cccc5Cl)c5nccn5c4n3)ccc2C2(CC2)C1 [Example 140, 6-(2-chloro-6-fluorophenyl)-2-[(2′-methyl-2′,3′-dihydro-1′H-spiro[cyclopropane-1,4′-isoquinolin]-7′-yl)amino]imidazo[1,2-a]pyrimido[5,4-e]pyrimidin-5(6H)-one]"
8,< 10,"Cc1cc(Nc2ncc3c(=O)n(-c4c(F)cccc4Cl)c4nccn4c3n2)ccc1N1CCCNCC1 [Example 141, 6-(2-chloro-6-fluorophenyl)-2-{[4-(1,4-diazepan-1-yl)-3-methylphenyl]amino}imidazo[1,2-a]pyrimido[5,4-e]pyrimidin-5(6H)-one]"
9,10 to 100,"CC(C)n1c(=O)c2cnc(Nc3ccc4c(c3)CN(C)CC43CC3)nc2n2ccnc12 [Example 142, 2-[(2′-methyl-2′,3′-dihydro-1′H-spiro[cyclopropane-1,4′-isoquinolin]-7′-yl)amino]-6-(propan-2-yl)imidazo[1,2-a]pyrimido[5,4-e]pyrimidin-5(6H)-one]"
10,< 10,"O=C1CN(c2ccc(Nc3ncc4c(=O)n(-c5c(Cl)cccc5Cl)c5nccn5c4n3)cc2)CCN1 [Example 143, 6-(2,6-dichlorophenyl)-2-{[4-(3-oxopiperazin-1-yl)phenyl]amino}imidazo[1,2-a]pyrimido[5,4-e]pyrimidin-5(6H)-one]"
11,< 10,"CC(C)N1Cc2cc(Nc3ncc4c(=O)n(-c5ccccc5Cl)c5nccn5c4n3)ccc2C(C)(C)C1 [Example 144, 6-(2-chlorophenyl)-2-{[4,4-dimethyl-2-(propan-2-yl)-1,2,3,4-tetrahydroisoquinolin-7-yl]amino}imidazo[1,2-a]pyrimido[5,4-e]pyrimidin-5(6H)-one]"
